Assay: in vitro
Settings: human, hela cells
[1] = % viability, bulk resorufin, single well

| SMILES | viability at 28.5 h, 10 µM (% viability) [%] | also measured |
| --- | --- | --- |
| Cc1nccn1CCNC(=O)c1ccccc1Cn1cccn1 [CBK281979] | 101 |  |
| CCCNS(=O)(=O)c1cc2c3c(c1)c(C)cc(=O)n3CCC2 [CBK307547] | 97.1 |  |
| O=C1Nc2ccc(Br)cc2C(=O)N2CCN(C(=O)c3ccccc3)C[C@H]12 [CBK289589] | 121 |  |
| CCN1CCN(S(=O)(=O)c2ccccc2F)CC1 [CBK100558] | 104 |  |
| Cc1ccc(S(=O)(=O)N2CCN(c3ccc([N+](=O)[O-])c(NCCN4CCOCC4)c3)CC2)cc1 [CBK265432] | 102 |  |
| COCCNc1nccnc1-c1cccs1 [CBK036739] | 100 |  |
| COc1cc(C2CN=NC23Cc2ccccc2C3=O)cc(OC)c1OC (centres unmarked) [CBK019341] | 90.4 |  |
| O=C(C[C@@H]1CCNC[C@@H]1Cc1cc(-c2ccccc2)on1)N1CCN(c2ccccc2)CC1 [CBK289148] | 83.2 |  |
| CC(=O)N(Cc1cccnc1)c1nc2cc3c(cc2s1)OCCO3 [CBK287696] | 99.9 |  |
| Cc1cc(C)cc(OCC(=O)NNC(=O)CN2C(=O)c3ccccc3C2=O)c1 [CBK262394] | 91.4 |  |
| COc1ccc(CC(=O)Nc2cccc(-c3ccc4c(c3)COC3(CCNCC3)O4)c2)c(OC)c1 [CBK115706] |  | viability at 28.5 h, 10 µM [1]: 89.6% |
| CCOC(=O)CC(=O)Nc1c(Br)cc(Br)cc1C(=O)O [CBK261412] | 95.2 |  |
| Cc1ccccc1C(NC(=O)C1CCN(C(=O)NCCc2ccccc2)CC1)c1ncccc1C (centres unmarked) [CBK060409] | 91 |  |
| O=C(COc1ccc(S(=O)(=O)Nc2ccc(Cl)cc2)cc1)Nc1ccccc1F [CBK268427] | 108 |  |
| CSCCCN1CCn2nc(CNc3cnccn3)cc2C1 [CBK307136] | 92.5 |  |
| COc1ccc(-c2cnc(N)c(-c3ccc(C(=O)NCCO)cc3)n2)cn1 [CBK064147] | 95.6 |  |
| CCCCCn1c(=O)c(Cc2ccccc2)c(O)c2ccccc21 [CBK291233] | 93.2 |  |
| NC(=O)COc1ccc(/C=C/c2cc(C(F)(F)F)[nH]c(=O)n2)cc1 [CBK269475] | 90.6 |  |
| COc1ccc(-c2cc(C(=O)Nc3nc4c(OC)cccc4s3)cnc2-c2ccccc2)cn1 [CBK036681] | 105 |  |
| O=C(CC(NCCO)C(=O)O)Nc1cccc(C(F)(F)F)c1 (centres unmarked) [CBK267065] | 109 |  |
| CC(Cc1cccs1)C(=O)N1CCn2cnnc2C1 (centres unmarked) [CBK282109] | 96 |  |
| CCOc1cccc(OCC(=O)N2CCC(c3cc(C(=O)NC)c4ccccc4n3)C2)c1 (centres unmarked) [CBK285896] | 81.5 |  |
| CCOc1ccc(C(=O)NC(=S)Nc2sc(C)c(C)c2C#N)cc1Cl [CBK268900] | 91.8 |  |

| SMILES | viability at 28.5 h, 10 µM (% viability) [%] | also measured |
| --- | --- | --- |
| CN(CC(=O)NNC(=O)c1cccnc1)S(=O)(=O)c1cc(Cl)ccc1Cl [CBK267388] | 92.2 |  |
| N#CC(CCCN1CCC(O)(c2ccccc2)CC1)(c1ccccc1)c1ccccc1 [CBK002145] |  | viability at 28.5 h, 10 µM: 105% |
| O=C(CSc1nc(O)cc(O)n1)Nc1ccc(I)cc1 [CBK269467] | 103 |  |
| CN(CC1CCCOC1)C(=O)c1ncsc1Nc1ccccc1 (centres unmarked) [CBK304250] | 94.4 |  |
| O=C(Nc1cccc(-c2nnn[nH]2)c1)c1ccc(Cl)c(Cl)c1 [CBK144713] | 89.3 |  |
| c1ccc(COc2ccccc2-c2cc(NCCc3ccccn3)ncn2)cc1 [CBK037826] | 102 |  |
| N#Cc1ccc(CN2CCCN(S(=O)(=O)c3ccc(C(F)(F)F)cc3Cl)CC2)cc1 [CBK062939] | 98 |  |
| Oc1ccc2ccccc2c1/C=N/Nc1nnc(-c2ccccc2)c(-c2ccccc2)n1 [CBK262005] | 91.9 |  |
| CC(=O)NC(CC(=O)N1CCc2sccc2C1C)c1ccc(C)cc1 (centres unmarked) [CBK305378] | 89.2 |  |
| Cc1nc2n(CCN3CCCCC3)c3ccccc3n2n1 [CBK278258C] | 91.5 |  |
| CCC(C)(C)Nc1cccnc1N(C)C1CCN(C(=O)c2cc3cc(N)ccc3[nH]2)CC1 [CBK016674] | 80.3 |  |
| FC(F)Oc1ccc(-c2ccnc(S)n2)cc1 [CBK288385] | 91.9 |  |
| CC(=O)Nc1ccc(-c2cncc(N3CCN(CCN4CCCC4)CC3)n2)cc1 [CBK065710] | 103 |  |
| COc1ccccc1CNCCc1ccc(S(N)(=O)=O)cc1 [CBK269852C] | 99.7 |  |
| Cc1csc2ncc(C(=O)Nc3ccc(Cl)c(Cl)c3)c(=O)n12 [CBK287459] | 104 |  |
| CCSc1nnc(-c2cccc(C)c2)n1CC1CCCCC1 [CBK085419] | 96.3 |  |
| CC(=O)Nc1ccc(-n2cc(COC3CCN(C(=O)OC(C)(C)C)CC3)nn2)cc1 [CBK149481] | 121 |  |
| CCC1C(=O)N=C(SCC(=O)Nc2ncccn2)NC1=O (centres unmarked) [CBK263920] | 94.6 |  |
| Cn1cc(C2CNCCN2C(=O)c2csc3ccccc23)cn1 (centres unmarked) [CBK304324C] | 108 |  |
| CN(CCN1CCCCC1)C(=O)C1(c2ccc(F)cc2)CC1 [CBK282178] | 95.4 |  |
| Cc1ccc(Cl)c(OC(C)C(=O)N2CCOC(CC(=O)O)C2)c1 (centres unmarked) [CBK304769] | 93 |  |
| O=S(=O)(c1ccc(C(F)(F)F)cc1Cl)N1CCCN(Cc2cccc3c2OCO3)CC1 [CBK063067] | 98.6 |  |
| CCc1nnc(CN(C)Cc2c(C)nn(C)c2Cl)o1 [CBK304132] | 90.5 |  |

| SMILES | viability at 28.5 h, 10 µM (% viability) [%] | also measured |
| --- | --- | --- |
| O=c1[nH]c2ccccc2n1CCCSc1nnc2c(n1)[nH]c1ccccc12 [CBK264917] | 118 |  |
| O=C(CCCc1ccccc1)Nc1scc2c(=O)oc3ccccc3c12 [CBK265435] | 90.1 |  |
| CC1CN(c2cc(CO)c(F)cn2)CC2(CCOC2C)O1 (centres unmarked) [CBK304754] | 101 |  |
| CC(Oc1ccc(Cl)cc1Cl)C(=O)Nc1ccc(N2CCN(C)CC2)cc1 (centres unmarked) [CBK266780] | 94.1 |  |
| CC(C)(C)C(=O)N1CCC(n2nc(C3CC3)ccc2=O)CC1 [CBK284242] | 84.6 |  |
| COc1cccc2sc(NC(=O)c3c(F)cccc3F)nc12 [CBK149283] | 95.5 |  |
| CNC(=O)CN(C)C(=O)c1coc(COc2ccc3sc(C)nc3c2)n1 [CBK307571] | 83.1 |  |
| CC(C)n1ccnc1CN1CCn2nc(CNc3cnccn3)cc2C1 [CBK306902] | 98.7 |  |
| Cc1ccc(C(=O)N2CC(=O)N(CCO)C2)cc1 [CBK045864] | 110 |  |
| CNC(=O)c1ccc(-c2cccc(Cl)c2Cl)nc1N1CCOCC1 [CBK106215] | 109 |  |
| O=C(NC(Cc1ccccc1)C(=O)O)c1ccc(C#CC2(O)CCCCC2)cc1 (centres unmarked) [CBK267702] | 93 |  |
| O=C(O)CSCC(=O)N1CCN(c2ccc(F)cc2)CC1 [CBK057269] | 98 |  |
| CCCn1c(C)nnc1CN(CC1CCCO1)C1CCCC1 (centres unmarked) [CBK304465] | 94.8 |  |
| CCOc1ccc(S(=O)(=O)N(C)c2ccc(OCC(=O)O)cc2)cc1 [CBK296119] | 102 |  |
| COc1ccc([C@@]23CCCN(C(=O)Nc4ccc(SC(F)(F)F)cc4)C[C@@H]2N(C)CC3)cc1OC [CBK056681T] | 92.2 |  |
| CCOC(=O)C1(C2CCCCC2)CCN(C(=O)c2cscn2)CC1 [CBK137101] | 82.1 |  |
| O=C(COc1ccccc1)c1cn(CC(=O)N2CCc3ccccc32)c2ccccc12 [CBK267659] | 93.5 |  |
| Nc1cc2cccnc2nc1-c1ccc(OC(F)(F)F)cc1 [CBK067616] | 93.8 |  |
| CN(c1cccc(C#N)c1)C1CCN(c2ncnc3c2cnn3C)C1 (centres unmarked) [CBK304720] | 87.4 |  |
| O=C(O)c1cccc(-n2c(S)nnc2-c2ccncc2)c1 [CBK269260] | 105 |  |
| COC(=O)c1c(NC(=S)NNC(=O)c2nn(C)c(C)c2Br)sc2c1CCC(C)C2 (centres unmarked) [CBK267052] | 93.9 |  |
| COc1cc(OC)c(OC)cc1CN1CCN(S(=O)(=O)c2ccc(C)cc2)CC1 [CBK263323] | 92.4 |  |
| Cc1nn(CC(=O)NC(C)C)c(=O)c2cc3sccc3n12 [CBK284048] | 104 |  |

| SMILES | viability at 28.5 h, 10 µM (% viability) [%] | also measured |
| --- | --- | --- |
| Cc1ccc(S(=O)(=O)NC(C)C(=O)NCc2ccco2)cc1 (centres unmarked) [CBK266514] | 109 |  |
| Cc1ccc(CN(Cc2cncn2C)C2CC(C)(C)NC(C)(C)C2)o1 [CBK283192] | 103 |  |
| CCOC(=O)C(C)n1nc(C)n2c(cc3ccsc32)c1=O (centres unmarked) [CBK284079] | 96.2 |  |
| Nc1csc(C2CCOCC2)n1 [CBK019258] | 77.3 |  |
| CCC(CNC(=O)c1coc(COc2ccc3sc(C)nc3c2)n1)OC (centres unmarked) [CBK307248] | 72.3 |  |
| O=C(O)C1CCN(C(=O)CSc2nnc(-c3ccccc3F)n2C2CCCC2)CC1 [CBK296971] | 115 |  |
| O=C(Cc1c[nH]c2ccccc12)N1CCCC1c1ccc(F)cc1 (centres unmarked) [CBK297927] | 105 |  |
| CCOC(=O)Cn1nc(-c2nonc2N)nc1-c1nonc1N [CBK265482] | 88.5 |  |
| S=c1nc[nH]cc1-c1ccc(Br)cc1 [CBK005833] | 87.6 |  |
| CC(NC(=O)C1C2C=CC(C2)C1C(=O)O)c1ccccc1 (centres unmarked) [CBK265384] | 109 |  |
| C=CCn1c(-c2sc(NC(=O)c3ccc(Cl)cc3F)nc2C)n[nH]c1=S [CBK295361] | 94.7 |  |
| O=C1NC(=O)C(CCc2ccccn2)(Cc2cccc(Cl)c2Cl)C(=O)N1c1ccc(Br)cc1 (centres unmarked) [CBK266359] |  | viability at 28.5 h, 10 µM [1]: 94.2% |
| Cc1cc(NC(=O)N(Cc2cnn(C)c2)CC(C)C)ccc1F [CBK304206] | 105 |  |
| CCC(C)NC1=NC(=O)C(CC(=O)Nc2ccccc2Cl)S1 (centres unmarked) [CBK059133T] | 97.3 |  |
| c1ccc2c(c1)[nH]c1nc(SCCN3CCCCC3)nnc12 [CBK263249] | 88.7 |  |
| C/C=C/c1ccc(OCCCn2nnc3ccccc32)c(OC)c1 [CBK269271] | 86 |  |
| COc1nccc(N2CCCC(CO)(CC3CC3)C2)c1C#N (centres unmarked) [CBK307553] | 89.3 |  |
| COC(C)CN(C)C(=O)c1cc2cc(C)ccc2nc1C (centres unmarked) [CBK282036] | 86.5 |  |
| O=C1CC(c2cccnc2)c2sc(N3CCOCC3)nc2N1 (centres unmarked) [CBK287927] | 105 |  |
| CN1CCN(c2nc(Nc3ccc(Cl)cc3)nc(Oc3ccccc3)n2)CC1 [CBK004778] | 107 |  |
